In patent US8916551B2, “Heterocyclic compound and use thereof” (Takeda Pharmaceutical Company Limited, priority 2010, dated 2014):

What was measured:
[1] = molecular target: T1, AMPA receptor (human GluR1 flip/stargazin expressed in CHO-K1 cells) (Homo sapiens, UniProt P42261); test: AMPA receptor function enhancing activity using calcium influx as index; assay type: cell-based; details: 100% = 3 mM glutamic acid + 300 μM cyclothiazide, 0% = 3 mM glutamic acid only
T1 construct: expressed in transfected cells; host or cells: CHO-K1
Method in brief: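 CHO-K1 clone stably co-expressing human GluR1 flip and stargazin, loaded with Calcium 4 dye plus probenecid. Compound at 30 μM was added with glutamate (3 mM final) and fluorescence change followed over 3 min. Activity is expressed as % of the 3 mM glutamate plus 300 μM cyclothiazide response, with glutamate alone as 0%.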

[2] = test compound 30 μM with 3 mM glutamic acid, change in fluorescence level in 3 min
[3] = test compound 30 μM with glutamic acid final 3 mM, change in fluorescence in 3 min

T1 sequence (P42261 19-906 isoform P42261-2 limits assumed): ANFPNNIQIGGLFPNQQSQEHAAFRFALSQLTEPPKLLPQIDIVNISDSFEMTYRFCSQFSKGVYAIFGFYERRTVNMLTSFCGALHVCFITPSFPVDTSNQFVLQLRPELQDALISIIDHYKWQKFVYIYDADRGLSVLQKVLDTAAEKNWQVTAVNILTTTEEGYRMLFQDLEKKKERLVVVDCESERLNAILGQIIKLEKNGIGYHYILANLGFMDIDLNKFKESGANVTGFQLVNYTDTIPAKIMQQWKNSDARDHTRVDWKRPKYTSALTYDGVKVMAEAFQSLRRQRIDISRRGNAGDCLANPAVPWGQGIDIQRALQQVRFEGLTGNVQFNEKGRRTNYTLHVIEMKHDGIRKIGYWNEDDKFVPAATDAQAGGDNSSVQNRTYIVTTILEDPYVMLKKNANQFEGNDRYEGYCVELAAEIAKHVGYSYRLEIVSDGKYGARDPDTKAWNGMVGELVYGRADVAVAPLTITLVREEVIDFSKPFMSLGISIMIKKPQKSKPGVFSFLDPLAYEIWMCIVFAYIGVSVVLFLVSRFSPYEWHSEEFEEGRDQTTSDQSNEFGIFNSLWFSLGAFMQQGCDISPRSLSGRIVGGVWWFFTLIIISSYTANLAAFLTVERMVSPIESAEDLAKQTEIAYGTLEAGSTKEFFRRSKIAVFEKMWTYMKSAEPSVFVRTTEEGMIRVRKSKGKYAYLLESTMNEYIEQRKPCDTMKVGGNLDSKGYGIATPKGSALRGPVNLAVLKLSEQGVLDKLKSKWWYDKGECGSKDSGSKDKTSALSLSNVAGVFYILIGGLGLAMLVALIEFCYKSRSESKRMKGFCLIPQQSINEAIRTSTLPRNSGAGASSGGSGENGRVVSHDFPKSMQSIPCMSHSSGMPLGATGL
T1 sequence (Q9Y698 whole entry partner): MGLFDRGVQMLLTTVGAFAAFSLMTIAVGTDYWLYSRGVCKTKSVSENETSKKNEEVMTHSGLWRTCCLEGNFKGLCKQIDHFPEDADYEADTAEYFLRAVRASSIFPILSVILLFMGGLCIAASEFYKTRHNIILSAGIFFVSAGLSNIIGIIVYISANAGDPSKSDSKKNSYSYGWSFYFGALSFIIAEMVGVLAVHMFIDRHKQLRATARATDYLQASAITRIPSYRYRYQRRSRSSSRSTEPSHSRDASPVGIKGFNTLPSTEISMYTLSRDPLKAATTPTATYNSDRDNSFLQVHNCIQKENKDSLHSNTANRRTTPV

Row | Structure (SMILES) | activity (%) [1, 2] [%] | melting point [°C] | activity (%) [1, 3] [%]
1 | O=S1(=O)CCN2C=CC(Cl)=C(c3ccc(Oc4ccccc4)cc3)C2=N1 [Example 205, 8-chloro-9-(4-phenoxyphenyl)-3,4-dihydropyrido[2,1-c][1,2,4]thiadiazine 2,2-dioxide] | 67 | 283 to 284 | –
2 | O=S1(=O)CCN2C=CC=C(c3ccc(OC4CCCCC4)cc3)C2=N1 [Example 182, 9-[4-(cyclohexyloxy)phenyl]-3,4-dihydropyrido[2,1-c][1,2,4]thiadiazine 2,2-dioxide] | 80 | 272 to 274 | –
3 | O=S1(=O)CCN2C=CN=C(c3ccc(OC4CCCCC4)cc3)C2=N1 [Example 68, 9-[4-(cyclohexyloxy)phenyl]-3,4-dihydropyrazino[2,1-c][1,2,4]thiadiazine 2,2-dioxide] | – | 239 to 240 | 77
4 | O=S1(=O)CCN2CCCC(c3ccc(-c4ccccc4)cc3)C2=N1 (stereo not shown) [Example 65, 9-biphenyl-4-yl-3,4,6,7,8,9-hexahydropyrido[2,1-c][1,2,4]thiadiazine 2,2-dioxide] | – | 224 to 227 | 78
5 | CC(C)(C)COc1ccc(C2=CC=CN3CCS(=O)(=O)N=C23)cc1 [Example 67, 9-[4-(2,2-dimethylpropoxy)phenyl]-3,4-dihydropyrido[2,1-c][1,2,4]thiadiazine 2,2-dioxide] | – | 258 to 259 | 68
6 | O=S1(=O)CCN2CCCC(c3ccc(C(F)(F)F)cc3)C2=N1 (stereo not shown) [Example 175, 9-[4-(trifluoromethyl)phenyl]-3,4,6,7,8,9-hexahydropyrido[2,1-c][1,2,4]thiadiazine 2,2-dioxide] | 53 | 226 to 227 | –
7 | Cc1cc(F)ccc1Oc1ccc(C2=CC=CN3CCS(=O)(=O)N=C23)cc1 [Example 143, 9-[4-(4-fluoro-2-methylphenoxy)phenyl]-3,4-dihydropyrido[2,1-c][1,2,4]thiadiazine 2,2-dioxide] | 76 | 240 to 242 | –
8 | O=S1(=O)CCN2C=CC=C(c3ccc(Oc4ccc(Cl)cc4)cc3)C2=N1 [Example 147, 9-[4-(4-chlorophenoxy)phenyl]-3,4-dihydropyrido[2,1-c][1,2,4]thiadiazine 2,2-dioxide] | 70 | 232 to 234 | –
9 | O=S1(=O)CCN2C=CC=C(c3ccc(OC(F)(F)F)cc3)C2=N1 [Example 34, 9-[4-(trifluoromethoxy)phenyl]-3,4-dihydropyrido[2,1-c][1,2,4]thiadiazine 2,2-dioxide] | – | 249 to 251 | 78
10 | COC1=C(c2ccc(Oc3ccccc3)cc2)C2=NS(=O)(=O)CCN2C=C1 [Example 204, 8-methoxy-9-(4-phenoxyphenyl)-3,4-dihydropyrido[2,1-c][1,2,4]thiadiazine 2,2-dioxide] | 70 | 269 to 270 | –
11 | O=S1(=O)CCN2C=C(Cl)C=C(c3ccc(OC4CCCCC4)cc3)C2=N1 [Example 73, 7-chloro-9-[4-(cyclohexyloxy)phenyl]-3,4-dihydropyrido[2,1-c][1,2,4]thiadiazine 2,2-dioxide] | – | 284 to 287 | 75
12 | O=S1(=O)CCN2C=CC=C(c3ccc(-c4ccccc4)cc3)C2=N1 [Example 14, 9-biphenyl-4-yl-3,4-dihydropyrido[2,1-c][1,2,4]thiadiazine 2,2-dioxide] | – | 315 to 316 | 78
13 | CC(C)c1ccc(C#CC2=CC=CN3CCS(=O)(=O)N=C23)cc1 [Example 26, 9-{[4-(1-methylethyl)phenyl]ethynyl}-3,4-dihydropyrido[2,1-c][1,2,4]thiadiazine 2,2-dioxide] | – | 258 to 262 | 87
14 | O=S1(=O)CCN2C=C(F)C=C(c3ccc(Oc4ccccc4)cc3)C2=N1 [Example 206, 7-fluoro-9-(4-phenoxyphenyl)-3,4-dihydropyrido[2,1-c][1,2,4]thiadiazine 2,2-dioxide] | 84 | 91.9 to 92 | –
15 | O=S1(=O)CCN2C=CC=C(c3ccc(OCC4CCOCC4)cc3)C2=N1 [Example 69, 9-[4-(tetrahydro-2H-pyran-4-ylmethoxy)phenyl]-3,4-dihydropyrido[2,1-c][1,2,4]thiadiazine 2,2-dioxide] | – | 268 to 269 | 71
16 | COc1ccc2ccc(OC3=CC=CN4CCS(=O)(=O)N=C34)cc2c1 [Example 59, 9-[(7-methoxynaphthalen-2-yl)oxy]-3,4-dihydropyrido[2,1-c][1,2,4]thiadiazine 2,2-dioxide] | – | 235 to 237 | 72
17 | CC(C)c1ccc(C2=CC=CN3CCS(=O)(=O)N=C23)cc1 [Example 23, 9-[4-(1-methylethyl)phenyl]-3,4-dihydropyrido[2,1-c][1,2,4]thiadiazine 2,2-dioxide] | – | 239 to 241 | 104
18 | O=S1(=O)CCN2C=C(Cl)C=C(c3ccc(Oc4ccccc4)cc3)C2=N1 [Example 81, 7-chloro-9-(4-phenoxyphenyl)-3,4-dihydropyrido[2,1-c][1,2,4]thiadiazine 2,2-dioxide] | – | 248 to 249 | 86
19 | Cc1ccc(C(F)(F)c2ccc(C3CCCN4CCS(=O)(=O)N=C34)cc2)cc1 (stereo not shown) [Example 137, 9-{4-[difluoro(4-methylphenyl)methyl]phenyl}-3,4,6,7,8,9-hexahydropyrido[2,1-c][1,2,4]thiadiazine 2,2-dioxide] | – | 190 to 191 | 61
20 | CC(C)Oc1ccc(C2=CC=CN3CCS(=O)(=O)N=C23)cc1Cl [Example 208, 9-[3-chloro-4-(1-methylethoxy)phenyl]-3,4-dihydropyrido[2,1-c][1,2,4]thiadiazine 2,2-dioxide] | 79 | 239 to 240 | –
21 | O=S1(=O)CCN2C=C(Cl)C=C(c3ccc(Oc4ncccc4C(F)(F)F)cc3)C2=N1 [Example 78, 7-chloro-9-(4-{[3-(trifluoromethyl)pyridin-2-yl]oxy}phenyl)-3,4-dihydropyrido[2,1-c][1,2,4]thiadiazine 2,2-dioxide] | – | 264 to 265 | 72

The remaining lines, values ahead:

Row | activity (%) [1, 2] [%] | melting point [°C] | activity (%) [1, 3] [%] | Structure (SMILES)
22 | 60 | 174 to 176 | – | O=S1(=O)CCN2CCCC(c3ccc(Oc4ccc(C(F)(F)F)cc4)cc3)C2=N1 (stereo not shown) [Example 232, 9-{4-[4-(trifluoromethyl)phenoxy]phenyl}-3,4,6,7,8,9-hexahydropyrido[2,1-c][1,2,4]thiadiazine 2,2-dioxide]
23 | 68 | 180 to 181 | – | O=S1(=O)CCN2CCC[C@@H](c3ccc(Oc4cc(F)c(F)c(F)c4)cc3)C2=N1 [Example 227, (9S)-9-[4-(3,4,5-trifluorophenoxy)phenyl]-3,4,6,7,8,9-hexahydropyrido[2,1-c][1,2,4]thiadiazine 2,2-dioxide]
24 | 89 | 117 to 118 | – | CC(F)(F)c1cccc(Oc2ccc(C3CCCN4CCS(=O)(=O)N=C34)cc2)c1 (stereo not shown) [Example 157, 9-{4-[3-(1,1-difluoroethyl)phenoxy]phenyl}-3,4,6,7,8,9-hexahydropyrido[2,1-c][1,2,4]thiadiazine 2,2-dioxide]
25 | 83 | 139 to 140 | – | COc1cccc(Oc2ccc([C@@H]3CCCN4CCS(=O)(=O)N=C34)cc2)c1 [Example 219, (9S)-9-[4-(3-methoxyphenoxy)phenyl]-3,4,6,7,8,9-hexahydropyrido[2,1-c][1,2,4]thiadiazine 2,2-dioxide]
26 | 71 | 170 to 171 | – | Cc1ccc(Oc2ccc([C@@H]3CCCN4CCS(=O)(=O)N=C34)cc2)cc1C [Example 216, (9S)-9-[4-(3,4-dimethylphenoxy)phenyl]-3,4,6,7,8,9-hexahydropyrido[2,1-c][1,2,4]thiadiazine 2,2-dioxide]
27 | 73 | 215 to 216 | – | O=S1(=O)CCN2CCCC(c3ccc(Oc4ccc(Cl)cc4)cc3)C2=N1 (stereo not shown) [Example 148, 9-[4-(4-chlorophenoxy)phenyl]-3,4,6,7,8,9-hexahydropyrido[2,1-c][1,2,4]thiadiazine 2,2-dioxide]
28 | 74 | 158 to 159 | – | Cc1cc(F)cc(Oc2ccc([C@@H]3CCCN4CCS(=O)(=O)N=C34)cc2)c1 [Example 236, (9S)-9-[4-(3-fluoro-5-methylphenoxy)phenyl]-3,4,6,7,8,9-hexahydropyrido[2,1-c][1,2,4]thiadiazine 2,2-dioxide]
29 | – | 220 to 222 | 73 | O=S1(=O)CCN2CCCC(c3ccc(-c4ccccc4)cc3)C2=N1 (stereo not shown) [Example 64, 9-biphenyl-4-yl-3,4,6,7,8,9-hexahydropyrido[2,1-c][1,2,4]thiadiazine 2,2-dioxide]
30 | 74 | 156 to 157 | – | CCc1ccc(Oc2ccc([C@@H]3CCCN4CCS(=O)(=O)N=C34)cc2)cc1 [Example 218, (9S)-9-[4-(4-ethylphenoxy)phenyl]-3,4,6,7,8,9-hexahydropyrido[2,1-c][1,2,4]thiadiazine 2,2-dioxide]
31 | – | 174 to 175 | 77 | O=S1(=O)CCN2CCC[C@@H](c3ccc(Oc4ccccc4)cc3)C2=N1 [Example 63, (9S)-9-(4-phenoxyphenyl)-3,4,6,7,8,9-hexahydropyrido[2,1-c][1,2,4]thiadiazine 2,2-dioxide]
32 | 67 | 195 to 197 | – | O=S1(=O)CCN2CCCC(c3ccc(Oc4ccc(Cl)c(Cl)c4)cc3)C2=N1 (stereo not shown) [Example 151, 9-[4-(3,4-dichlorophenoxy)phenyl]-3,4,6,7,8,9-hexahydropyrido[2,1-c][1,2,4]thiadiazine 2,2-dioxide]
